Assay results reported in ChEMBL document CHEMBL6153150, “Design, Synthesis, and Biological Evaluation of Chiral-Proline Derivatives as Novel HSP90 Inhibitors” (ACS Med Chem Lett, 2025).

How the values were obtained:
MCF7 = assay: Antiproliferative activity against human MCF7 cells assessed as cell viability inhibition rate incubated for 72 hr by MTT assay; format: functional, cell-based; conditions: MCF7, 72 h
Heat shock protein HSP90 = Heat shock protein HSP90 (Homo sapiens, UniProt P07900+P08238); assay: Binding affinity to Hsp90 (unknown origin) assessed as dissociation constant incubated for 30 mins by fluorescence spectrophotometric analysis; format: protein assay
A549 = assay: Antiproliferative activity against human A549 cells assessed as cell viability inhibition rate incubated for 72 hr by MTT assay; format: functional, cell-based; conditions: A549, 72 h
K562 = assay: Antiproliferative activity against human K562 cells assessed as cell viability inhibition rate incubated for 72 hr by MTT assay; format: functional, cell-based; conditions: K562, 72 h
HCT-116 = assay: Antiproliferative activity against human HCT-116 cells assessed as cell viability inhibition rate incubated for 72 hr by MTT assay; format: functional, cell-based; conditions: HCT-116, 72 h
SK-BR-3 = assay: Antiproliferative activity against human SK-BR-3 cells assessed as cell viability inhibition rate incubated for 72 hr by MTT assay; format: functional, cell-based; conditions: SK-BR-3, 72 h

SMILES | IC50 (MCF7) [nM] | Kd (Heat shock protein HSP90) [nM] | IC50 (A549) [nM] | IC50 (K562) [nM] | IC50 (HCT-116) [nM] | IC50 (SK-BR-3) [nM]
O=C(NCc1ccccc1F)[C@H]1C[C@H](c2ccccc2)CN1C(=O)c1cc(C2CC2)c(O)cc1O | 86 | 168 | 29 | 411 | 291 | 312
CC(C)c1cc(C(=O)N2C[C@@H](c3ccccc3)C[C@@H]2C(=O)N(C)C2CC2)c(O)cc1O | – | 1871 | – | – | – | –
CC(C)c1cc(C(=O)N2C[C@@H](c3ccccc3)C[C@@H]2C(=O)N2CCCCC2C)c(O)cc1O (stereo partly specified) | – | 2171 | – | – | – | –
O=C(NCc1ccccn1)[C@H]1C[C@H](c2ccccc2)CN1C(=O)c1cc(C2CC2)c(O)cc1O | 47 | 57 | 67 | 876 | 263 | 351
CC(C)NC(=O)[C@H]1C[C@H](c2ccccc2)CN1C(=O)c1cc(C(C)C)c(O)cc1O | – | 1237 | – | – | – | –
CC(C)c1cc(C(=O)N2C[C@@H](c3ccccc3)C[C@@H]2C(=O)NC(C)C(C)C)c(O)cc1O (stereo partly specified) | 185 | 345 | 130 | 566 | 637 | 738
COCCN(CCOC)C(=O)[C@H]1C[C@H](c2ccccc2)CN1C(=O)c1cc(C2CC2)c(O)cc1O | 336 | 637 | 163 | 596 | 795 | 761
COCCN1CCN(C(=O)[C@H]2C[C@H](c3ccccc3)CN2C(=O)c2cc(C(C)C)c(O)cc2O)CC1 | – | 637 | – | – | – | –
CC(C)c1cc(C(=O)N2C[C@@H](c3ccccc3)C[C@@H]2C(=O)N2CCN(CC3CC3)CC2)c(O)cc1O | – | 862 | – | – | – | –
CC(C)c1cc(C(=O)N2C[C@@H](c3ccccc3)C[C@@H]2C(=O)NCc2ccccc2F)c(O)cc1O | 87 | 231 | 71 | 631 | 376 | 462
CC(C)c1cc(C(=O)N2C[C@@H](c3ccccc3)C[C@@H]2C(=O)N2CCN(C(C)C)CC2)c(O)cc1O | – | 1021 | – | – | – | –
CC(C)c1cc(C(=O)N2C[C@@H](c3ccccc3)C[C@@H]2C(=O)NC2CCCC2)c(O)cc1O | – | 876 | – | – | – | –
CC(C)OCCCNC(=O)[C@H]1C[C@H](c2ccccc2)CN1C(=O)c1cc(C(C)C)c(O)cc1O | – | 202 | – | – | – | –
CC(C)c1cc(C(=O)N2C[C@@H](c3ccccc3)C[C@@H]2C(=O)N(C)Cc2ccccc2)c(O)cc1O | – | 2331 | – | – | – | –
CC(C)CCNC(=O)[C@H]1C[C@H](c2ccccc2)CN1C(=O)c1cc(C(C)C)c(O)cc1O | – | 645 | – | – | – | –
Cc1ccc(CNC(=O)[C@H]2C[C@H](c3ccccc3)CN2C(=O)c2cc(C3CC3)c(O)cc2O)cc1 | 89 | 153 | 89 | 566 | 471 | 431
COCCNC(=O)[C@H]1C[C@H](c2ccccc2)CN1C(=O)c1cc(C(C)C)c(O)cc1O | – | 188 | – | – | – | –
CCOCCCNC(=O)[C@H]1C[C@H](c2ccccc2)CN1C(=O)c1cc(C2CC2)c(O)cc1O | 183 | 937 | 203 | 504 | 1010 | 733
CCCCCNC(=O)[C@H]1C[C@H](c2ccccc2)CN1C(=O)c1cc(C(C)C)c(O)cc1O | – | 2161 | – | – | – | –
CCC1CCCCN1C(=O)[C@H]1C[C@H](c2ccccc2)CN1C(=O)c1cc(C(C)C)c(O)cc1O (stereo partly specified) | – | 1677 | – | – | – | –
CC(NC(=O)[C@H]1C[C@H](c2ccccc2)CN1C(=O)c1cc(C2CC2)c(O)cc1O)c1ccccc1 (stereo partly specified) | 101 | 201 | 107 | 702 | 631 | 633
COc1ccc(C(C)NC(=O)[C@H]2C[C@H](c3ccccc3)CN2C(=O)c2cc(C3CC3)c(O)cc2O)cc1 (stereo partly specified) | 126 | 263 | 82 | 667 | 641 | 451
CC(C)C(C)NC(=O)[C@H]1C[C@H](c2ccccc2)CN1C(=O)c1cc(C2CC2)c(O)cc1O (stereo partly specified) | 204 | 345 | 105 | 631 | 507 | 787
CC(C)c1cc(C(=O)N2C[C@@H](c3ccccc3)C[C@@H]2C(=O)N2CCCCC2)c(O)cc1O | – | 1337 | – | – | – | –
CC(C)c1cc(C(=O)N2C[C@@H](c3ccccc3)C[C@@H]2C(=O)N2CCN(Cc3ccccc3)CC2)c(O)cc1O | – | 1033 | – | – | – | –
CCN(CC)CCNC(=O)[C@H]1C[C@H](c2ccccc2)CN1C(=O)c1cc(C(C)C)c(O)cc1O | – | 431 | – | – | – | –

SMILES | IC50 (MCF7) [nM] | Kd (Heat shock protein HSP90) [nM] | IC50 (A549) [nM] | IC50 (K562) [nM] | IC50 (HCT-116) [nM] | IC50 (SK-BR-3) [nM]
CCCNC(=O)[C@H]1C[C@H](c2ccccc2)CN1C(=O)c1cc(C(C)C)c(O)cc1O | – | 1653 | – | – | – | –
CC(C)CNC(=O)[C@H]1C[C@H](c2ccccc2)CN1C(=O)c1cc(C2CC2)c(O)cc1O | 93 | 107 | 89 | 533 | 403 | 765
CCN(C)C(=O)[C@H]1C[C@H](c2ccccc2)CN1C(=O)c1cc(C(C)C)c(O)cc1O | – | 1873 | – | – | – | –
COc1ccc(C(C)NC(=O)[C@H]2C[C@H](c3ccccc3)CN2C(=O)c2cc(C(C)C)c(O)cc2O)cc1 (stereo partly specified) | 170 | 463 | 172 | 533 | 652 | 721
CC(C)CNC(=O)[C@H]1C[C@H](c2ccccc2)CN1C(=O)c1cc(C(C)C)c(O)cc1O | 87 | 165 | 63 | 539 | 435 | 653
CC(C)c1cc(C(=O)N2C[C@@H](c3ccccc3)C[C@@H]2C(=O)N(C)C2CCCCC2)c(O)cc1O | – | 1762 | – | – | – | –
CCOCCNC(=O)[C@H]1C[C@H](c2ccccc2)CN1C(=O)c1cc(C(C)C)c(O)cc1O | – | 124 | – | – | – | –
CC(C)c1cc(C(=O)N2C[C@@H](c3ccccc3)C[C@@H]2C(=O)NCC2CC2)c(O)cc1O | – | 354 | – | – | – | –
CC(C)CN(C)C(=O)[C@H]1C[C@H](c2ccccc2)CN1C(=O)c1cc(C(C)C)c(O)cc1O | – | 1573 | – | – | – | –
CC(C)c1cc(C(=O)N2C[C@@H](c3ccccc3)C[C@@H]2C(=O)NC2CCCCC2)c(O)cc1O | – | 1076 | – | – | – | –
CC(C)c1cc(C(=O)N2C[C@@H](c3ccccc3)C[C@@H]2C(=O)N2CCN(c3ncccn3)CC2)c(O)cc1O | – | 1631 | – | – | – | –
CC(C)c1cc(C(=O)N2C[C@@H](c3ccccc3)C[C@@H]2C(=O)N2CCCC2)c(O)cc1O | – | 2033 | – | – | – | –
CC(C)c1cc(C(=O)N2C[C@@H](c3ccccc3)C[C@@H]2C(=O)N2CCC(N3CCCCC3)CC2)c(O)cc1O | – | 983 | – | – | – | –
CCN(C(=O)[C@H]1C[C@H](c2ccccc2)CN1C(=O)c1cc(C(C)C)c(O)cc1O)C(C)C | – | 2479 | – | – | – | –
CCCCNC(=O)[C@H]1C[C@H](c2ccccc2)CN1C(=O)c1cc(C(C)C)c(O)cc1O | – | 1873 | – | – | – | –
CC(C)c1cc(C(=O)N2C[C@@H](c3ccccc3)C[C@@H]2C(=O)N2CCC(OCC3CC3)CC2)c(O)cc1O | – | 1632 | – | – | – | –
CCCN1CCN(C(=O)[C@H]2C[C@H](c3ccccc3)CN2C(=O)c2cc(C(C)C)c(O)cc2O)CC1 | – | 1033 | – | – | – | –
CCCCN(C)C(=O)[C@H]1C[C@H](c2ccccc2)CN1C(=O)c1cc(C(C)C)c(O)cc1O | – | 1637 | – | – | – | –
CCCN(CCC)C(=O)[C@H]1C[C@H](c2ccccc2)CN1C(=O)c1cc(C(C)C)c(O)cc1O | – | 2516 | – | – | – | –
O=C(c1ccc(O)cc1)N1Cc2ccccc2C1 | – | 4300 | – | – | – | –
CCNC(=O)[C@H]1C[C@H](c2ccccc2)CN1C(=O)c1cc(C(C)C)c(O)cc1O | – | 1132 | – | – | – | –
CC(C)c1cc(C(=O)N2C[C@@H](c3ccccc3)C[C@@H]2C(=O)NC2CC2)c(O)cc1O | – | 1213 | – | – | – | –
CC(C)c1cc(C(=O)N2C[C@@H](c3ccccc3)C[C@@H]2C(=O)NCCCn2ccnc2)c(O)cc1O | – | 1376 | – | – | – | –
CC1CCCN(C(=O)[C@H]2C[C@H](c3ccccc3)CN2C(=O)c2cc(C(C)C)c(O)cc2O)C1 (stereo partly specified) | – | 2162 | – | – | – | –
CC(C)c1cc(C(=O)N2C[C@@H](c3ccccc3)C[C@@H]2C(=O)N2CCN(C)CC2)c(O)cc1O | – | 2310 | – | – | – | –
